For 11 compounds, GI50 and TGI results are on record in PubChem BioAssay (NCI).

Common to all, as to experiment: NCI tumour cell line growth inhibition, 48 h
Experiment [1] has as its system OVCAR-8 ovarian.
Experiment [2] has as its system SF-268 CNS.
Experiment [3] has as its system IGROV1 ovarian.
The subject of experiment [4] is EKVX NSCLC.
Experiment [5] concerns NCI-H23 lung.
The subject of experiment [6] is LOX IMVI melanoma.
Experiment [7] relates to MALME-3M melanoma.

Values joined by “and” are separate entries in the source; they are usually repeats but may differ in a detail not shown here. Equal values may be shown once.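 Results reflect a 48-hour exposure of cells in 96-well plates to compound at five concentrations. The concentration for 50% growth inhibition is given as GI50. The concentration for full growth arrest is given as TGI.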 Bounds are passed on as bounds.

As to `COc1cc2c3c(n(CCCNC(C)(C)CO)c(=O)c2cc1OC)-c1cc2c(cc1C3=O)OCO2`, the GI50 is 1.18 µM in experiment [1]; 3.81 µM in experiment [2]; 1.7 µM in experiment [3]; 16.6 µM in experiment [4]; 0.799 µM in experiment [5]; 0.255 µM in experiment [6]. Besides, the GI50 in experiment [7] is 14.8 µM. For the same compound, the TGI in experiment [1] is 22.4 µM; in experiment [2], 56.6 µM; in experiment [3] it was over 100 µM; in experiment [4], 42.7 µM; in experiment [5], 12.3 µM; in experiment [6], 2.06 µM. Further, the TGI in experiment [7] turned out to be 51.1 µM.

For `COC(=O)CC12CC(NC(=O)c3csc([C@@H](C[C@H](C(C)C)N(C)C(=O)[C@@H](NC(=O)[C@H]4CCCCN4C)C(C)C)OC(C)=O)n3)(C1)C2`, the GI50 in experiment [1] is 0.00545 µM and 0.0131 µM; in experiment [2], 0.0074 µM and 0.0204 µM; in experiment [3], 0.00917 µM and 0.0162 µM; in experiment [4] it was 0.00949 µM and 0.0229 µM; in experiment [5], 0.0098 µM and 0.0167 µM; in experiment [6], 0.00446 µM and 0.0121 µM. Besides, the GI50 in experiment [7] is 0.00491 µM. The TGI in experiment [1], in experiment [2], in experiment [3], in experiment [4], in experiment [5] and in experiment [6] was over 33.3 µM in each case.

With `COC(=O)Nc1nc2ccc(C(=O)C3CC3)cc2[nH]1`, the GI50 in experiment [1] is 0.668 µM; in experiment [2], 0.573 µM; in experiment [3], 0.29 µM; in experiment [4], 0.554 µM; in experiment [5], 0.47 µM; in experiment [6], 0.72 µM. Besides, the GI50 in experiment [7] is 0.392 µM. Also, the TGI was over 100 µM in experiment [1]; 31.3 µM in experiment [2]; 18.2 µM in experiment [3]; over 100 µM in experiment [4]; over 27.6 µM in experiment [5]; over 100 µM in experiment [6]. This compound also returned a TGI in experiment [7] of over 100 µM.

In the case of `CSc1nc(SC)c2c(C)cn(Cc3ccccc3)c2n1`, the TGI in experiment [1], in experiment [2], in experiment [3], in experiment [4], in experiment [5] and in experiment [6] was over 100 µM each time. For the same compound, the TGI in experiment [7] is over 100 µM.

For the compound `NNC(=S)N/N=C/c1ccccn1`, the GI50 was 2.28 µM in experiment [1]; 1.58 µM in experiment [2]; 3.05 µM in experiment [3]; 4.5 µM in experiment [4]; 3.54 µM in experiment [5]; 2.3 µM in experiment [6]. In experiment [7], the GI50 is 5.19 µM. For the same compound, the TGI in experiment [1], in experiment [2], in experiment [3], in experiment [4], in experiment [5] and in experiment [6] was over 100 µM throughout. Besides, the TGI in experiment [7] is over 100 µM.

Consider `Nc1n[nH]c2ccc([C@H]3[C@@H]4C5CCC(C5)[C@@H]4c4c(ccc5[nH]ncc45)N3S(=O)(=O)C3CC3)cc12` (some centres not stated), for which the GI50 was 0.213 µM in experiment [1]; 0.618 µM in experiment [2]; 0.269 µM in experiment [3]; 0.264 µM in experiment [4]; 0.225 µM in experiment [5]; 0.303 µM in experiment [6]. In experiment [7], the GI50 was 0.326 µM. The TGI in experiment [1] is over 41.1 µM; in experiment [2] it was 14 µM; in experiment [3], over 38.7 µM; in experiment [4], over 45.4 µM; in experiment [5] it was 9.31 µM; in experiment [6] it was 6.45 µM. The TGI in experiment [7] is 40.9 µM.

In the case of `Nc1ncnc2occ(-c3ccc(NC(=O)Nc4cc(C(F)(F)F)ccc4F)cc3)c12`, the GI50 in experiment [1] is 4.76 µM and 1.95 µM; in experiment [2] it was 4.68 µM and 2.34 µM; in experiment [3], 3.82 µM and 1.27 µM; in experiment [4], 5.12 µM and 3.97 µM; in experiment [5], 4.62 µM and 2.09 µM; in experiment [6], 4.83 µM and 2.69 µM. In experiment [7], the GI50 was 7.15 µM and 4.35 µM. Further, the TGI in experiment [1] was 16.6 µM and 5.76 µM; in experiment [2] it was 12.5 µM and 8.02 µM; in experiment [3], 14.1 µM and 7.18 µM; in experiment [4], 16.6 µM and 13.2 µM; in experiment [5] it was 12.9 µM and 6.86 µM; in experiment [6] it was 14.9 µM and 10.2 µM. Moreover, the TGI in experiment [7] was 17.6 µM and 12 µM.

Consider `O=C(O)c1cc(C(=O)C(=O)c2cc(C(=O)O)c(O)c3ccccc23)c2ccccc2c1O`, for which the TGI in experiment [1], in experiment [2], in experiment [3], in experiment [4], in experiment [5] and in experiment [6] was over 100 µM each time. In addition, in experiment [7], the TGI is over 100 µM.

Regarding `Oc1c(CCl)cc(Cl)cc1Cc1cc(Cl)cc(Cc2cc(Cl)cc(CCl)c2O)c1O`, the GI50 in experiment [1] was 3.62 µM; in experiment [2], 3.18 µM; in experiment [3], 3.79 µM; in experiment [4], 2.89 µM; in experiment [5], 2.18 µM; in experiment [6], 3.27 µM. The GI50 in experiment [7] is 3.32 µM. Also, the TGI worked out at 30.7 µM in experiment [1]; 62.1 µM in experiment [2]; 16.7 µM in experiment [3]; 15.8 µM in experiment [4]; 7.31 µM in experiment [5]; 12.2 µM in experiment [6]. Besides, the TGI in experiment [7] is 14.7 µM.

Turning to `CCOC(=O)Nc1nc(-c2ccccc2)c(C)s1`, the TGI in experiment [1], in experiment [2], in experiment [3], in experiment [4], in experiment [5] and in experiment [6] was over 100 µM in each case. The compound also showed a TGI in experiment [7] of over 100 µM.

In the case of `Fc1ccc(-c2nn3c(COc4ccccc4Cl)nnc3s2)cc1Oc1ccccc1`, the GI50 is 49.9 µM in experiment [1]; 44.8 µM in experiment [2]; 31 µM in experiment [3]; 49 µM in experiment [4]; 21.2 µM in experiment [5]; 22.3 µM in experiment [6]. Besides, the GI50 in experiment [7] is 26.2 µM. Besides, the TGI was over 100 µM in experiment [1]; over 100 µM in experiment [2]; over 100 µM in experiment [3]; over 100 µM in experiment [4]; 43.9 µM in experiment [5]; 51.9 µM in experiment [6]. In experiment [7], the TGI amounted to 68.9 µM.
